Experimental data as given in ChEMBL document CHEMBL1759932, “Design, synthesis and structure-activity relationships of (indo-3-yl) heterocyclic derivatives as agonists of the CB1 receptor. Discovery of a clinical candidate” (Bioorg Med Chem Lett, 2011).

Experiments:
[1] = Clearance in ICR mouse; type: ADME, organism-based; details: in vivo
[2] = Volume of distribution at steady state in ICR mouse; type: ADME, organism-based; details: in vivo, read-out: Vdss
[3] = Half life in ICR mouse; type: ADME, organism-based; details: in vivo
[4] = Ratio of Cmax in brain to plasma in ICR mouse; type: ADME; details: brain and plasma
[5] = Intrinsic clearance in rat liver microsomes; type: ADME, Microsome
[6] = Intrinsic clearance in human liver microsomes; type: ADME, Microsome
[7] = Intrinsic clearance in dog hepatic microsomes; type: ADME, Canis lupus familiaris, Liver, Microsome
[8] = Clearance in Wistar rat; type: ADME, organism-based; details: in vivo
[9] = Volume of distribution at steady state in Wistar rat; type: ADME, organism-based; details: in vivo, read-out: Vdss
[10] = Half life in Wistar rat; type: ADME, organism-based; details: in vivo
[11] = Clearance in Beagle dog; type: ADME, organism-based, Canis lupus familiaris; details: in vivo
[12] = Volume of distribution at steady state in Beagle dog; type: ADME, organism-based, Canis lupus familiaris; details: in vivo, read-out: Vdss
[13] = Half life in Beagle dog; type: ADME, organism-based, Canis lupus familiaris; details: in vivo
[14] = Intrinsic clearance in mouse hepatic microsomes; type: ADME, Microsome; details: liver microsomes

| SMILES | microsomal CLint [5] | microsomal CLint [6] | also measured |
| --- | --- | --- | --- |
| CCc1cccc2c(-c3nsc(CN4CCCC4)n3)cn(CC3CCCCC3)c12.Cl | – | – | clearance [1]: 28 mL/min/kg; Vd [2]: 1.4 L/kg; half-life [3]: 1.2 h; Kp [4]: 0.05 |
| CCc1sc(-c2cn(CC3CCOCC3)c3c(Cl)cccc23)nc1CN(CC)CCO | > 270 µL/min/mg | 114 µL/min/mg | – |
| OCCN(CCO)Cc1csc(-c2cn(CC3CCOCC3)c3c(Cl)cccc23)n1 | > 270 µL/min/mg | 111 µL/min/mg | – |
| OC1CCN(Cc2csc(-c3cn(CC4CCOCC4)c4c(Cl)cccc34)n2)CC1 | 16 µL/min/mg | 12 µL/min/mg | – |
| CN(CCO)Cc1csc(-c2cn(CC3CCOCC3)c3c(Cl)cccc23)n1 | 167 µL/min/mg | < 16 µL/min/mg | – |
| CC(C)N(CCO)Cc1csc(-c2cn(CC3CCOCC3)c3c(Cl)cccc23)n1 | > 160 µL/min/mg | 161 µL/min/mg | CL [7]: 0.131 mL/min/kg; clearance [1]: 159 mL/min/kg; Vd [2]: 11.3 L/kg; half-life [3]: 1.38 h; Kp [4]: 3.9; clearance [8]: 127 mL/min/kg; Vd [9]: 15 L/kg; half-life [10]: 1.6 h; clearance [11]: 28 mL/min/kg; Vd [12]: 5 L/kg; half-life [13]: 3 h; microsomal CLint [14]: 176 µL/min/mg |
| COC1CCN(Cc2csc(-c3cn(CC4CCOCC4)c4c(Cl)cccc34)n2)CC1 | > 270 µL/min/mg | 80.4 µL/min/mg | – |
| Clc1cccc2c(-c3nc(CN4CCOCC4)cs3)cn(CC3CCOCC3)c12 | > 270 µL/min/mg | 97.9 µL/min/mg | – |
| COCCN(C)Cc1csc(-c2cn(CC3CCCCC3)c3c(Cl)cccc23)n1 | 22 µL/min/mg | 36 µL/min/mg | – |
